# System: 233499-124-R-J3-PDC spheroids with HUVEC/MSC, viability
# Experiment: Anticancer human tumor 233499-124-R-J3-PDC patient-derived colon adenocarcinoma cell line growth inhibition [PI3K]
# Settings: for viability, T/C: stronger effect = lower value
# In short: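 Tumor cells were combined with HUVEC and MSCs into spheroids, then dosed with PI3K-inhibitor combinations over half-log ranges capped near clinical Cmax or 10 microM.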
# [1] = curve of first compound, second compound 0.00316 µM
# [2] = curve of first compound, second compound 0.01 µM
# [3] = curve of first compound, second compound 0.0316 µM
# [4] = curve of first compound, second compound 0.1 µM
# [5] = curve of first compound, second compound 0.316 µM
# [6] = curve of first compound, second compound 1 µM
# [7] = second compound 0.00316 µM, first compound 0.0316 µM
# [8] = second compound 0.00316 µM, first compound 0.1 µM
# [9] = second compound 0.00316 µM, first compound 0.316 µM
# [10] = second compound 0.00316 µM, first compound 1 µM
# [11] = second compound 0.00316 µM, first compound 3.16 µM
# [12] = second compound 0.00316 µM, first compound 10 µM
# [13] = second compound 0.01 µM, first compound 0.0316 µM
# [14] = second compound 0.01 µM, first compound 0.1 µM
# [15] = second compound 0.01 µM, first compound 0.316 µM
# [16] = second compound 0.01 µM, first compound 1 µM
# [17] = second compound 0.01 µM, first compound 3.16 µM
# [18] = second compound 0.01 µM, first compound 10 µM
# [19] = second compound 0.0316 µM, first compound 0.0316 µM
# [20] = second compound 0.0316 µM, first compound 0.1 µM
# [21] = second compound 0.0316 µM, first compound 0.316 µM
# [22] = second compound 0.0316 µM, first compound 1 µM
# [23] = second compound 0.0316 µM, first compound 3.16 µM
# [24] = second compound 0.0316 µM, first compound 10 µM
# [25] = second compound 0.1 µM, first compound 0.0316 µM
# [26] = second compound 0.1 µM, first compound 0.1 µM
# [27] = second compound 0.1 µM, first compound 0.316 µM
# [28] = second compound 0.1 µM, first compound 1 µM
# [29] = second compound 0.1 µM, first compound 3.16 µM
# [30] = second compound 0.1 µM, first compound 10 µM
# [31] = second compound 0.316 µM, first compound 0.0316 µM
# [32] = second compound 0.316 µM, first compound 0.1 µM
# [33] = second compound 0.316 µM, first compound 0.316 µM
# [34] = second compound 0.316 µM, first compound 1 µM
# [35] = second compound 0.316 µM, first compound 3.16 µM
# [36] = second compound 0.316 µM, first compound 10 µM
# [37] = second compound 1 µM, first compound 0.0316 µM
# [38] = second compound 1 µM, first compound 0.1 µM
# [39] = second compound 1 µM, first compound 0.316 µM
# [40] = second compound 1 µM, first compound 1 µM
# [41] = second compound 1 µM, first compound 3.16 µM
# [42] = second compound 1 µM, first compound 10 µM
# 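Also: spheroids exposed to agents for seven days before readout.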
# 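For viability, T/C in this document: percent viability relative to DMSO vehicle control taken as 100%.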
smiles,measurement,setting,value
C#Cc1c(F)ccc2cc(O)cc(-c3ncc4c(N5CC6CCC(C5)N6)nc(OCC56CCCN5CC(F)C6)nc4c3F)c12 (configuration not stated) + COc1c(OCCCN2CCOCC2)ccc2c3n(c(=NC(=O)c4cnc(N)nc4)nc12)CCN3,IC50,[1],> 10 µM
same,IC50,[2],> 10 µM
same,IC50,[3],> 10 µM
same,IC50,[4],2.23 µM
same,IC50,[5],< 0.0316 µM
same,IC50,[6],< 0.0316 µM
same,"viability, T/C",[7],85.5%
same,"viability, T/C",[8],100%
same,"viability, T/C",[9],82.9%
same,"viability, T/C",[10],95.1%
same,"viability, T/C",[11],81%
same,"viability, T/C",[12],67.2%
same,"viability, T/C",[13],81.5%
same,"viability, T/C",[14],95.2%
same,"viability, T/C",[15],86.9%
same,"viability, T/C",[16],91.6%
same,"viability, T/C",[17],81.2%
same,"viability, T/C",[18],80.8%
same,"viability, T/C",[19],93.3%
same,"viability, T/C",[20],91.3%
same,"viability, T/C",[21],74.8%
same,"viability, T/C",[22],92.7%
same,"viability, T/C",[23],71.2%
same,"viability, T/C",[24],68.7%
same,"viability, T/C",[25],62.6%
same,"viability, T/C",[26],86.5%
same,"viability, T/C",[27],71.2%
same,"viability, T/C",[28],63.5%
same,"viability, T/C",[29],44.3%
same,"viability, T/C",[30],29.7%
same,"viability, T/C",[31],24.9%
same,"viability, T/C",[32],26%
same,"viability, T/C",[33],27.1%
same,"viability, T/C",[34],11.7%
same,"viability, T/C",[35],13.3%
same,"viability, T/C",[36],4.16%
same,"viability, T/C",[37],4.26%
same,"viability, T/C",[38],9.48%
same,"viability, T/C",[39],8.52%
same,"viability, T/C",[40],3.87%
same,"viability, T/C",[41],4.18%
same,"viability, T/C",[42],2.6%
CC(=O)c1c(C)c2cnc(Nc3ccc(N4CCNCC4)cn3)nc2n(C2CCCC2)c1=O,"viability, T/C",compound 0.000316 µM,98.4% [middle of 4 runs]
same,"viability, T/C",compound 0.001 µM,98.5% [middle of 4 runs]
same,"viability, T/C",compound 0.00316 µM,85.1% [middle of 4 runs]
same,"viability, T/C",compound 0.01 µM,88.2% [middle of 4 runs]
same,"viability, T/C",compound 0.1 µM,91.2% [middle of 4 runs]
same,IC50,curve of compound,> 0.1 µM
CNC(=O)c1ccc(N2C(=S)N(c3ccc(C#N)c(C(F)(F)F)c3)C(=O)C2(C)C)cc1F + CC(Nc1ccc2c(c1)OCCn1cc(N3C(=O)OCC3C(F)F)nc1-2)C(N)=O,IC50,[1],8.07 µM
same,IC50,[2],> 10 µM
same,IC50,[3],> 10 µM
same,IC50,[4],> 10 µM
same,IC50,[5],> 10 µM
same,IC50,[6],0.145 µM
same,"viability, T/C",[7],85.8%
same,"viability, T/C",[8],82.7%
same,"viability, T/C",[9],79.2%
same,"viability, T/C",[10],92%
same,"viability, T/C",[11],78.3%
same,"viability, T/C",[12],42.9%
same,"viability, T/C",[13],88.3%
same,"viability, T/C",[14],98.5%
same,"viability, T/C",[15],95%
same,"viability, T/C",[16],76.9%
same,"viability, T/C",[17],71.2%
same,"viability, T/C",[18],72.2%
same,"viability, T/C",[19],88.9%
same,"viability, T/C",[20],54.9%
same,"viability, T/C",[21],76%
same,"viability, T/C",[22],89.2%
same,"viability, T/C",[23],88.1%
same,"viability, T/C",[24],67.4%
same,"viability, T/C",[25],84.7%
same,"viability, T/C",[26],71.8%
same,"viability, T/C",[27],94.4%
same,"viability, T/C",[28],77.9%
same,"viability, T/C",[29],69.5%
same,"viability, T/C",[30],55.6%
same,"viability, T/C",[31],88.2%
same,"viability, T/C",[32],38%
same,"viability, T/C",[33],71.2%
same,"viability, T/C",[34],76.2%
same,"viability, T/C",[35],59.1%
same,"viability, T/C",[36],53.6%
same,"viability, T/C",[37],52.5%
same,"viability, T/C",[38],52.1%
same,"viability, T/C",[39],42.8%
same,"viability, T/C",[40],50.2%
same,"viability, T/C",[41],43.7%
same,"viability, T/C",[42],34.6%
CC(Cn1ccc(-c2ccc(C#N)c(Cl)c2)n1)NC(=O)c1cc(C(C)O)[nH]n1 (configuration not stated) + CC(Nc1ccc2c(c1)OCCn1cc(N3C(=O)OCC3C(F)F)nc1-2)C(N)=O,IC50,[1],> 10 µM
same,IC50,[2],> 10 µM
same,IC50,[3],> 10 µM
same,IC50,[4],> 10 µM
same,IC50,[5],7.39 µM
same,IC50,[6],> 10 µM
same,"viability, T/C",[7],97.5%
same,"viability, T/C",[8],84.3%
same,"viability, T/C",[9],86.6%
same,"viability, T/C",[10],83.1%
same,"viability, T/C",[11],90.8%
same,"viability, T/C",[12],97.7%
same,"viability, T/C",[13],99.5%
same,"viability, T/C",[14],77.7%
same,"viability, T/C",[15],96.2%
same,"viability, T/C",[16],83.4%
same,"viability, T/C",[17],82.5%
same,"viability, T/C",[18],76.8%
same,"viability, T/C",[19],92.1%
same,"viability, T/C",[20],82.4%
same,"viability, T/C",[21],67.9%
same,"viability, T/C",[22],93.9%
same,"viability, T/C",[23],101%
same,"viability, T/C",[24],83%
same,"viability, T/C",[25],83.1%
same,"viability, T/C",[26],89.3%
same,"viability, T/C",[27],90%
same,"viability, T/C",[28],80.3%
same,"viability, T/C",[29],74.4%
same,"viability, T/C",[30],71%
same,"viability, T/C",[31],76%
same,"viability, T/C",[32],63.7%
same,"viability, T/C",[33],70.5%
same,"viability, T/C",[34],73.6%
same,"viability, T/C",[35],90.6%
same,"viability, T/C",[36],41.2%
same,"viability, T/C",[37],62%
same,"viability, T/C",[38],62%
same,"viability, T/C",[39],47.4%
same,"viability, T/C",[40],62.6%
same,"viability, T/C",[41],66%
same,"viability, T/C",[42],54.6%
CC1(C)CCC(CN2CCN(c3ccc(C(=O)NS(=O)(=O)c4ccc(NCC5CCOCC5)c([N+](=O)[O-])c4)c(Oc4cnc5[nH]ccc5c4)c3)CC2)=C(c2ccc(Cl)cc2)C1,"viability, T/C",compound 0.0316 µM,96.5% [middle of 4 runs]
same,"viability, T/C",compound 0.1 µM,104% [middle of 4 runs]
same,"viability, T/C",compound 3.16 µM,100% [middle of 4 runs]
Cn1nccc1Nc1nccc(-c2ccn(C(CO)c3ccc(Cl)c(F)c3)c(=O)c2)n1 (configuration not stated) + CC(Nc1ncnc2nc[nH]c12)c1cc2cccc(Cl)c2c(=O)n1-c1ccccc1,IC50,[3],> 10 µM
same,IC50,[4],> 10 µM
same,IC50,[5],> 10 µM
same,IC50,[6],> 10 µM
same,IC50,"curve of first compound, second compound 3.16 µM",> 10 µM
same,IC50,"curve of first compound, second compound 10 µM",> 10 µM
same,"viability, T/C",[19],108%
same,"viability, T/C",[20],104%
same,"viability, T/C",[21],110%
same,"viability, T/C",[22],88%
same,"viability, T/C",[23],89%
same,"viability, T/C",[24],70.8%
same,"viability, T/C",[25],103%
same,"viability, T/C",[26],95.6%
same,"viability, T/C",[27],91.3%
same,"viability, T/C",[28],65.1%
same,"viability, T/C",[29],92.8%
same,"viability, T/C",[30],62.3%
same,"viability, T/C",[31],108%
same,"viability, T/C",[32],89.9%
same,"viability, T/C",[33],90.4%
same,"viability, T/C",[34],70.8%
same,"viability, T/C",[35],78.1%
same,"viability, T/C",[36],68.6%
same,"viability, T/C",[37],91.7%
same,"viability, T/C",[38],72.6%
same,"viability, T/C",[39],72.9%
same,"viability, T/C",[40],86.3%
same,"viability, T/C",[41],81.3%
same,"viability, T/C",[42],69%
same,"viability, T/C","second compound 3.16 µM, first compound 0.0316 µM",87%
same,"viability, T/C","second compound 3.16 µM, first compound 0.1 µM",87.9%
same,"viability, T/C","second compound 3.16 µM, first compound 0.316 µM",74.5%
same,"viability, T/C","second compound 3.16 µM, first compound 1 µM",89.8%
same,"viability, T/C","second compound 3.16 µM, first compound 3.16 µM",66.3%
same,"viability, T/C","second compound 3.16 µM, first compound 10 µM",77.6%
same,"viability, T/C","second compound 10 µM, first compound 0.0316 µM",76.8%
same,"viability, T/C","second compound 10 µM, first compound 0.1 µM",83.8%
same,"viability, T/C","second compound 10 µM, first compound 0.316 µM",98%
same,"viability, T/C","second compound 10 µM, first compound 1 µM",69.9%
same,"viability, T/C","second compound 10 µM, first compound 3.16 µM",76.4%
same,"viability, T/C","second compound 10 µM, first compound 10 µM",51.9%

# Source: PubChem BioAssay AID1963984 (Molecular Pharmacology Branch, DTP, NCI, 2024)
